Values quoted from earlier work as cited in US20240035023A1, “COMPUTER IMPLEMENTED METHOD FOR E[…] FOR SYNTHESIS OF FL[…]” (Kcat Enzymatic Private Limited, priority 2022, published 2024).

Molecular target: fluorinase (Streptantibioticus cattleyicolor, UniProt Q70GK9)

For `Nc1ncnc2c1ncn2[C@@H]1O[C@H](CSCC[C@H](N)C(=O)O)[C@@H](O)[C@H]1O` [S-adenosyl-homocysteine], the “enzyme activity against the substrate” value is listed as “no activity”.
